The text below walks through data of patent publication US5563172A, “Macrocyclic amide and urea immunomodulators” (Abbott Laboratories, priority 1994, dated 1996).

SMILES strings stand for the structures.

In general, IC50 refers to the point on the concentration scale where inhibition reaches its midpoint. Lower therefore signals greater potency.

The subject of the test is human mixed lymphocyte reaction (MLR). Nature of the test: human mixed lymphocyte reaction (MLR) assay, immunosuppressant activity. The format is cell-based. The note with it: Table 1. How it is done: The immunosuppressant activity of the compounds of the present invention was determined using the human mixed lymphocyte reaction (MLR) assay described by Kino, T. et al. in Transplantation Proceedings, XIX(5):36-39,Suppl. 6 (1987).
`CCC1C=C(C)CC(C)CC(OC)C2OC(O)(C(=O)C(=O)N3CCCCC3C(=O)OC(C(C)=CC3CCC(OCC(=O)NNC(=O)c4ccncc4)C(OC)C3)C(C)C(O)CC1=O)C(C)CC2OC` (centres unmarked) [Example 71] displayed an IC50 of 0.1 nM.

`CCC1C=C(C)CC(C)CC(OC)C2OC(O)(C(=O)C(=O)N3CCCCC3C(=O)OC(C(C)=CC3CCC(OCC(=O)NCCc4ccccc4)C(OC)C3)C(C)C(O)CC1=O)C(C)CC2OC` (centres unmarked) [Example 82] displayed an IC50 of 0.3 nM.

`CCC1C=C(C)CC(C)CC(OC)C2OC(O)(C(=O)C(=O)N3CCCCC3C(=O)OC(C(C)=CC3CCC(OCC(=O)OCc4ccccc4)C(OC)C3)C(C)C(O)CC1=O)C(C)CC2OC` (centres unmarked) [Example 2] yielded an IC50 of 7.6 nM.

`CCOC(=O)COC1CCC(C=C(C)C2OC(=O)C3CCCCN3C(=O)C(=O)C3(O)OC(C(OC)CC(C)CC(C)=CC(CC)C(=O)CC(O)C2C)C(OC)CC3C)CC1OC` (centres unmarked) [Example 1] displayed an IC50 of 0.9 nM.

In the case of `CCC1C=C(C)CC(C)CC(OC)C2OC(O)(C(=O)C(=O)N3CCCCC3C(=O)OC(C(C)=CC3CCC(OCC(=O)Nc4ccc(F)cc4)C(OC)C3)C(C)C(O)CC1=O)C(C)CC2OC` (centres unmarked) [Example 54], the IC50 is 0.02 nM.

In turn, `CCC1C=C(C)CC(C)CC(OC)C2OC(O)(C(=O)C(=O)N3CCCCC3C(=O)OC(C(C)=CC3CCC(OCC(=O)Nc4cccc(F)c4)C(OC)C3)C(C)C(O)CC1=O)C(C)CC2OC` (centres unmarked) [Example 72] came in with an IC50 of 0.08 nM.

In turn, `CCC1C=C(C)CC(C)CC(OC)C2OC(O)(C(=O)C(=O)N3CCCCC3C(=O)OC(C(C)=CC3CCC(OCC(=O)Nc4cccnc4)C(OC)C3)C(C)C(O)CC1=O)C(C)CC2OC` (centres unmarked) [Example 57] displayed an IC50 of 0.1 nM.

On to `CCC1C=C(C)CC(C)CC(OC)C2OC(O)(C(=O)C(=O)N3CCCCC3C(=O)OC(C(C)=CC3CCC(OCC(=O)Nc4cccc(O)c4)C(OC)C3)C(C)C(O)CC1=O)C(C)CC2OC` (centres unmarked) [Example 73], for which inhibition was half-maximal at 0.04 nM (IC50).

In the case of `CCC1C=C(C)CC(C)CC(OC)C2OC(O)(C(=O)C(=O)N3CCCCC3C(=O)OC(C(C)=CC3CCC(OCC(=O)NCCCN4CCOCC4)C(OC)C3)C(C)C(O)CC1=O)C(C)CC2OC` (centres unmarked) [Example 87], the IC50 was 1.1 nM.

For `CCC1C=C(C)CC(C)CC(OC)C2OC(O)(C(=O)C(=O)N3CCCCC3C(=O)OC(C(C)=CC3CCC(OCC(=O)NCCCO)C(OC)C3)C(C)C(O)CC1=O)C(C)CC2OC` (centres unmarked) [Example 31], the midpoint of inhibition, the IC50, lay at 1.1 nM.

In turn, `CCC1C=C(C)CC(C)CC(OC)C2OC(O)(C(=O)C(=O)N3CCCCC3C(=O)OC(C(C)=CC3CCC(OCC(=O)O)C(OC)C3)C(C)C(O)CC1=O)C(C)CC2OC` (centres unmarked) [Example 3] gave an IC50 of 140 nM.

The molecule `CCC1C=C(C)CC(C)CC(OC)C2OC(O)(C(=O)C(=O)N3CCCCC3C(=O)OC(C(C)=CC3CCC(OCC(=O)NCCCN(C)C)C(OC)C3)C(C)C(O)CC1=O)C(C)CC2OC` (centres unmarked) [Example 89] returned an IC50 of 0.5 nM.

`CCC1C=C(C)CC(C)CC(OC)C2OC(O)(C(=O)C(=O)N3CCCCC3C(=O)OC(C(C)=CC3CCC(OCNC(=O)Nc4ccccc4)C(OC)C3)C(C)C(O)CC1=O)C(C)CC2OC` (centres unmarked) [Example 112] showed an IC50 of 0.1 nM.

For the molecule `CCC1C=C(C)CC(C)CC(OC)C2OC(O)(C(=O)C(=O)N3CCCCC3C(=O)OC(C(C)=CC3CCC(OCC(=O)NCc4ccccc4)C(OC)C3)C(C)C(O)CC1=O)C(C)CC2OC` (centres unmarked) [Example 4], the IC50 amounted to 0.5 nM.

As to `CCC1C=C(C)CC(C)CC(OC)C2OC(O)(C(=O)C(=O)N3CCCCC3C(=O)OC(C(C)=CC3CCC(OCC(=O)Nc4ccc(C(F)(F)F)cc4)C(OC)C3)C(C)C(O)CC1=O)C(C)CC2OC` (centres unmarked) [Example 53], the IC50 was 0.2 nM.

Take `CCC1C=C(C)CC(C)CC(OC)C2OC(O)(C(=O)C(=O)N3CCCCC3C(=O)OC(C(C)=CC3CCC(OCC(=O)Nc4ccccc4)C(OC)C3)C(C)C(O)CC1=O)C(C)CC2OC` (centres unmarked) [Example 85]: the IC50 stood at 0.5 nM.

Molecule `CCC1C=C(C)CC(C)CC(OC)C2OC(O)(C(=O)C(=O)N3CCCCC3C(=O)OC(C(C)=CC3CCC(OCC(=O)NN4CCOCC4)C(OC)C3)C(C)C(O)CC1=O)C(C)CC2OC` (centres unmarked) [Example 51] had an IC50 of 0.3 nM.

Turning to `CCC1C=C(C)CC(C)CC(OC)C2OC(O)(C(=O)C(=O)N3CCCCC3C(=O)OC(C(C)=CC3CCC(OCC(=O)Nc4ccncc4)C(OC)C3)C(C)C(O)CC1=O)C(C)CC2OC` (centres unmarked) [Example 58], inhibition was half-maximal at 0.15 nM (IC50).

In the case of `CCC1C=C(C)CC(C)CC(OC)C2OC(O)(C(=O)C(=O)N3CCCCC3C(=O)OC(C(C)=CC3CCC(OCC(=O)N(C)CCc4ccccc4)C(OC)C3)C(C)C(O)CC1=O)C(C)CC2OC` (centres unmarked) [Example 83], the IC50 was found to be 0.4 nM.

As to `CCC1C=C(C)CC(C)CC(OC)C2OC(O)(C(=O)C(=O)N3CCCCC3C(=O)OC(C(C)=CC3CCC(OCC(=O)N4CCOCC4)C(OC)C3)C(C)C(O)CC1=O)C(C)CC2OC` (centres unmarked) [Example 29], the IC50 is 0.7 nM.

In turn, `CCC1C=C(C)CC(C)CC(OC)C2OC(O)(C(=O)C(=O)N3CCCCC3C(=O)OC(C(C)=CC3CCC(OCC(=O)Nc4ccccn4)C(OC)C3)C(C)C(O)CC1=O)C(C)CC2OC` (centres unmarked) [Example 59] showed an IC50 of 0.05 nM.

Turning to `CCC1C=C(C)CC(C)CC(OC)C2OC(O)(C(=O)C(=O)N3CCCCC3C(=O)OC(C(C)=CC3CCC(OCNC(=O)N4CCOCC4)C(OC)C3)C(C)C(O)CC1=O)C(C)CC2OC` (centres unmarked) [Example 111], the IC50 was determined as 1.8 nM.

`CCC1C=C(C)CC(C)CC(OC)C2OC(O)(C(=O)C(=O)N3CCCCC3C(=O)OC(C(C)=CC3CCC(OCC(=O)NCCN(C)C)C(OC)C3)C(C)C(O)CC1=O)C(C)CC2OC` (centres unmarked) [Example 88]: the IC50 was found to be 0.1 nM.

`CCC1C=C(C)CC(C)CC(OC)C2OC(O)(C(=O)C(=O)N3CCCCC3C(=O)OC(C(C)=CC3CCC(OCC(N)=O)C(OC)C3)C(C)C(O)CC1=O)C(C)CC2OC` (centres unmarked) [Example 6] gave an IC50 of 0.1 nM.

Consider `CCC1C=C(C)CC(C)CC(OC)C2OC(O)(C(=O)C(=O)N3CCCCC3C(=O)OC(C(C)=CC3CCC(OCC(=O)NCC(=O)O)C(OC)C3)C(C)C(O)CC1=O)C(C)CC2OC` (centres unmarked) [Example 39], for which the midpoint of inhibition, the IC50, lay at 173 nM.

As for `CCC1C=C(C)CC(C)CC(OC)C2OC(O)(C(=O)C(=O)N3CCCCC3C(=O)OC(C(C)=CC3CCC(OCC(=O)N4CCN(C)CC4)C(OC)C3)C(C)C(O)CC1=O)C(C)CC2OC` (centres unmarked) [Example 74], the IC50 turned out to be 0.06 nM.
